Residues, ends and D or L forms follow the SMILES beside them.
Key:
3 × Tg-AD mice = assay: Side effects and safety during chronic dietary treatment; type: in vivo, mouse; settings: 60 nmol P021/g feed in diet
Protocol: At approximately 3 months of age, the animals were divided into three groups: one group of 3 × Tg-AD-P021 (n = 32) treated with 60 nmol P021/g feed in the diet; a second group of 3 × Tg-AD-vh (n = 35) treated with the same diet but without P021; and a third group of WT (n = 41) treated with the same diet but without P021. P021 was formulated by Research Diets (New Brunswick, NJ, USA). Food consumption was recorded every 2 weeks and body weight every month. The average mouse food consumption was ~2.7 g feed/day.

[1] = parameters: method as in PMID 25046994; settings: over 30 min; cited from earlier work
[2] = parameters: method as in PMID 25046994; settings: over 120 min; cited from earlier work
[3] = parameters: method as in PMID 25046994; settings: cited from earlier work
[4] = parameters: method as in PMID 25046994; settings: cited from earlier work; remark: listed apart in the source

CC(=O)N[C@@H](CC(=O)O)C(=O)NCC(=O)NCC(=O)N[C@@H](CC(C)C)C(=O)NC12CC3CC(C1)CC(C(N)=O)(C3)C2 [Peptide P021] (HELM PEPTIDE1{[ac].D.G.G.L.[NC(=O)C12CC3CC(CC(N[*:1])(C3)C1)C2]}$$$$V2.0)
side effects or safety issues (3 × Tg-AD mice; preclinical study of almost 2 years): did not show any severe side effects or safety issues | weight loss, tumors, or signs of pain (3 × Tg-AD mice; treatment for around 18 months): did not show any weight loss, tumors, or signs of pain | stability in artificial gastric juice [1]: > 95% | stability in intestinal fluid [2]: ~ 100% | plasma stability [3]: > 3 h | blood–brain barrier permeability [4]: blood–brain barrier permeable

Reference: article PMC5488423, “Prevention of dendritic and synaptic deficits and cognitive impairment with a neurotrophic compound” (Alzheimer's Research & Therapy, 2017)
